The source of these data is patent US20020111314A1, “Novel stimulation of gene expression and protein synthesis of heat shock protein 72/73 (Hsp 70)” (The Trustees of Columbia University, priority 1995, published 2002).

Square brackets hold non-standard residues; d marks the D form. Peptide text beside a SMILES is read from it. Nle = CCCC[C@H](N)C(=O)O

The test system of one series is HSF1. Kind of series: HSF1 steady-state level and trimerization (Western blot, EGS cross-linking) in HepG2 cells. It counts as cell-based, human. Conditions: ALLN 40 μg/ml, 2 hours. As to the method: HepG2 cells were treated with serum-free MEM containing 1.5% BSA for 2 hours at 37° C. without any additions (lane 1), at 37° C. but containing 40 μg/ml of ALLN in the medium (lane 2), at 37° C. in a medium containing both ALLN and 50 μg/ml of cycloheximide (lane 3), at 42° C. alone (lane 4), or at 42° C. plus cycloheximide in the medium (lane 5). Cell lysates were prepared as described under Experimental Details. The lysates were either directly run on the SDS-PAGE (A) to show the steady-state protein levels of HSF1 or subjected to cross-linking with ethylene glycol bis sucrinimidylsuccinate (EGS) before running the gel (B) to show the oligomeric forms of HSF1. The proteins were then transfered to a nitrocellulose membrane and immunoblotted with anti-human HSF1 antibody. Arrows on the right side indicates the monomeric, dimeric or trimeric forms of HSF1, respectively. This experiment was repeated three times with identical results.
Total RNA was prepared using the procedure of Chomczynski and Sacchi (Chomczynski, et al., 1987) and a commercially prepared reagent, TRISOLV™ (Biotecx Laboratories Inc., TX). Equal amounts of tRNA samples (10 μg) were size-fractionated on a 1% agarose-formaldehyde gel according to the methods described (Maniatis, et al., 1982) and transferred to a piece of QIAGEN plus nylon membrane. To determine loading and transfer efficiency, RNA was stained with ethidium bromide before and after transfer. The membrane was baked for 30 min. at 80° C. in vacuo (a vacuum) followed by UV cross-linking. It was then incubated for 4 hours at 65° C. in a prehybridization mixture containing 10% dextran sulfate, 1% SDS, 1M sodium chloride, 50 mM Tris-HCl (pH 7.5) and 100 μg/ml denatured salmon sperm DNA. Hybridization was carried out for 18 hours at 65° C. in the same buffer with a ^32P-labeled (1×10^6 cpm/ml) 40-mer oligonucleotide probe to the untranslated 5′ region of a human hsp70 gene (Oncogene Science). […] The membrane was then washed four times with 2×SSC, 0.1% SDS at room temperature, one time at 65° C. for 30 min., and one time at room temperature again for 5 min., and finally rinsed with 2×SSC at room temperature. This membrane was air dried and exposed to X-ray film at −80° C. for 48 hours. For measurement of the steady-state HSF1 protein levels, whole cell extracts were prepared by lysing the cells directly with 2×SDS-sample buffer (Maniatis, et al., 1982). For chemical cross-linking experiments, whole-cell extracts were prepared as described (Mosser, et al., 1988). Briefly, the cold PBS-washed cell pellets were quickly and repeatedly frozen in liquid nitrogen. […]
A general note: Immunoblotting shows a protein as a band on a membrane.

Series [1] relates to human microvascular endothelial cell line. The series is described as follows: TCA-cpm measurement in human microvascular endothelial cell line. It counts as cell-based. Conditions: 4 hours ALLN 40 μg/ml.

Regarding `CCCC[C@@H](C=O)NC(=O)[C@H](CC(C)C)NC(=O)[C@H](CC(C)C)NC(C)=O` [ALLN, N-acetyl-leucyl-leucyl-norleucinal] (Ac-Leu-Leu-[Nle]-aldehyde), the “oligomeric form of HSF1 after EGS cross-linking” value in the series with HSF1 (270-kDa cross-linked product) was “exists as a trimer”. Moreover, the “steady-state levels of HSF1 in whole cell extracts” value in the series on HSF1 (with or without cycloheximide) is “not significantly affected”. The TCA-cpm measurement entry in series [1] is reported as “no change”.
